Key:
Rattus norvegicus [1] = assay: Analgesic activity in Sprague-Dawley rat brewer's yeast treated foot assessed as response threshold at 32 mg/kg, po; type: functional
Rattus norvegicus [2] = assay: Analgesic activity in Sprague-Dawley rat normal foot assessed as response threshold at 32 mg/kg, po; type: functional

For `CCc1ccc(-n2c(=O)[nH]c3cccnc32)cc1`, the Activity (Rattus norvegicus [1]) was less than 25 mm and the Activity (Rattus norvegicus [2]) was less than 40 mm.
`CC(C)=CCn1c(=O)n(-c2ccc3c(c2)OCO3)c2ncccc21` showed an Activity (Rattus norvegicus [1]) of less than 25 mm and an Activity (Rattus norvegicus [2]) of less than 40 mm.
In the case of `COC(=O)c1cnc2c(c1)nnn2-c1ccc2c(c1)OCO2`, the Activity (Rattus norvegicus [1]) is reported as less than 25 mm and the Activity (Rattus norvegicus [2]) is reported as less than 40 mm.
Compound `c1cnc2c(c1)nnn2-c1ccc2c(c1)OCO2` has an Activity (Rattus norvegicus [1]) of 25 mm and an Activity (Rattus norvegicus [2]) of 40 mm.
`O=c1[nH]c2cccnc2n1-c1ccccc1F` gave an Activity (Rattus norvegicus [1]) of 25 mm and an Activity (Rattus norvegicus [2]) of less than 40 mm.
Work on `O=c1[nH]c2cccnc2n1-c1cc(F)ccc1F` yielded an Activity (Rattus norvegicus [1]) of less than 25 mm and an Activity (Rattus norvegicus [2]) of less than 40 mm.
`Cc1cccc(-n2nnc3cccnc32)n1` was tested, and the Activity (Rattus norvegicus [1]) was less than 25 mm and the Activity (Rattus norvegicus [2]) was less than 40 mm.
In the case of `CC(C)Cc1ccc(-n2c(=O)[nH]c3cccnc32)cc1`, the Activity (Rattus norvegicus [1]) is reported as less than 25 mm and the Activity (Rattus norvegicus [2]) is reported as less than 40 mm.
Work on `N#Cc1cccc(-n2nnc3cccnc32)c1` yielded an Activity (Rattus norvegicus [1]) of less than 25 mm and an Activity (Rattus norvegicus [2]) of less than 40 mm.
`O=c1[nH]c2cccnc2n1Cc1ccc2c(c1)OCO2` was tested, and the Activity (Rattus norvegicus [1]) was less than 25 mm and the Activity (Rattus norvegicus [2]) was less than 40 mm.
`CN(C)CCCn1c(=O)n(-c2ccc3c(c2)OCO3)c2ncccc21` showed an Activity (Rattus norvegicus [1]) of less than 25 mm and an Activity (Rattus norvegicus [2]) of less than 40 mm.
`O=C(O)Cc1ccc(-n2c(=O)[nH]c3cccnc32)cc1` was tested, and the Activity (Rattus norvegicus [1]) was less than 25 mm and the Activity (Rattus norvegicus [2]) was less than 40 mm.
Work on `CC(C)CCn1c(=O)n(-c2ccc3c(c2)OCO3)c2ncccc21` yielded an Activity (Rattus norvegicus [1]) of less than 25 mm and an Activity (Rattus norvegicus [2]) of less than 40 mm.
In the case of `CCOC(=O)n1c(=O)n(-c2ccc3c(c2)OCO3)c2ncccc21`, the Activity (Rattus norvegicus [1]) is reported as less than 25 mm and the Activity (Rattus norvegicus [2]) is reported as less than 40 mm.
Work on `O=c1[nH]c2cccnc2n1-c1ccccc1Br` yielded an Activity (Rattus norvegicus [1]) of 25 mm and an Activity (Rattus norvegicus [2]) of less than 40 mm.
`Cc1ccc(-n2nnc3cccnc32)cc1C` gave an Activity (Rattus norvegicus [1]) of less than 25 mm and an Activity (Rattus norvegicus [2]) of less than 40 mm.
Work on `Nc1cnc2c(c1)[nH]c(=O)n2-c1ccccc1F` yielded an Activity (Rattus norvegicus [1]) of less than 25 mm and an Activity (Rattus norvegicus [2]) of less than 40 mm.
`COc1ccccc1-n1nnc2cccnc21` was tested, and the Activity (Rattus norvegicus [1]) was 25 mm and the Activity (Rattus norvegicus [2]) was less than 40 mm.
For `C=CCn1c(=O)n(-c2ccc3c(c2)OCO3)c2ncccc21.CI`, the Activity (Rattus norvegicus [1]) was less than 25 mm and the Activity (Rattus norvegicus [2]) was less than 40 mm.
With `O=c1[nH]c2cccnc2n1-c1cccc(F)c1` the Activity (Rattus norvegicus [1]) was less than 25 mm and the Activity (Rattus norvegicus [2]) was less than 40 mm.
In the case of `Cc1ccc(F)c(-n2nnc3cccnc32)c1`, the Activity (Rattus norvegicus [1]) is reported as less than 25 mm and the Activity (Rattus norvegicus [2]) is reported as less than 40 mm.
Work on `c1cnc2c(c1)nnn2Cc1ccc2c(c1)OCO2` yielded an Activity (Rattus norvegicus [1]) of less than 25 mm and an Activity (Rattus norvegicus [2]) of less than 40 mm.
Work on `O=c1[nH]c2cccnc2n1Cc1ccc(F)cc1` yielded an Activity (Rattus norvegicus [1]) of less than 25 mm and an Activity (Rattus norvegicus [2]) of less than 40 mm.
With `O=C(O)c1ccc(-n2c(=O)[nH]c3cccnc32)cc1` the Activity (Rattus norvegicus [1]) was less than 25 mm and the Activity (Rattus norvegicus [2]) was less than 40 mm.
`Oc1ccccc1-n1nnc2cccnc21` showed an Activity (Rattus norvegicus [1]) of less than 25 mm and an Activity (Rattus norvegicus [2]) of less than 40 mm.
`CSCn1c(=O)n(-c2ccccc2)c2ncccc21` showed an Activity (Rattus norvegicus [1]) of 25 mm and an Activity (Rattus norvegicus [2]) of less than 40 mm.
`O=c1[nH]c2cccnc2n1-c1ccc(Cl)c(Cl)c1` gave an Activity (Rattus norvegicus [1]) of less than 25 mm and an Activity (Rattus norvegicus [2]) of less than 40 mm.
`NC(=O)c1cccc(-n2nnc3cccnc32)c1` showed an Activity (Rattus norvegicus [1]) of 25 mm and an Activity (Rattus norvegicus [2]) of less than 40 mm.
Work on `O=c1[nH]c2cccnc2n1-c1cccc2c1OCO2` yielded an Activity (Rattus norvegicus [1]) of less than 25 mm and an Activity (Rattus norvegicus [2]) of less than 40 mm.
With `Fc1cccc(-n2nnc3cccnc32)c1` the Activity (Rattus norvegicus [1]) was less than 25 mm and the Activity (Rattus norvegicus [2]) was less than 40 mm.
`CCOC(=O)c1cccc(-n2c(=O)[nH]c3cccnc32)c1` showed an Activity (Rattus norvegicus [1]) of less than 25 mm and an Activity (Rattus norvegicus [2]) of less than 40 mm.
`C=CCn1c(=O)n(-c2ccc3c(c2)OCO3)c2ncncc21` was tested, and the Activity (Rattus norvegicus [1]) was less than 25 mm and the Activity (Rattus norvegicus [2]) was less than 40 mm.
In the case of `Cc1ccc(F)c(-n2c(=O)[nH]c3cccnc32)c1`, the Activity (Rattus norvegicus [1]) is reported as less than 25 mm and the Activity (Rattus norvegicus [2]) is reported as 40 mm.
`CC(=O)OCn1c(=O)n(-c2ccc3c(c2)OCO3)c2ncccc21` was tested, and the Activity (Rattus norvegicus [1]) was less than 25 mm and the Activity (Rattus norvegicus [2]) was less than 40 mm.
In the case of `Cc1cccc(-n2c(=O)[nH]c3cccnc32)n1`, the Activity (Rattus norvegicus [1]) is reported as less than 25 mm and the Activity (Rattus norvegicus [2]) is reported as less than 40 mm.
For `C=CCn1c(=O)n(-c2ccccc2F)c2ncncc21`, the Activity (Rattus norvegicus [1]) was less than 25 mm and the Activity (Rattus norvegicus [2]) was less than 40 mm.
`O=c1n(-c2ccc3c(c2)OCO3)c2ncccc2n1S(=O)(=O)C(F)(F)F` gave an Activity (Rattus norvegicus [1]) of less than 25 mm and an Activity (Rattus norvegicus [2]) of less than 40 mm.
In the case of `COC(=O)c1cnc2c(c1)nnn2-c1ccccc1F`, the Activity (Rattus norvegicus [1]) is reported as less than 25 mm and the Activity (Rattus norvegicus [2]) is reported as less than 40 mm.
In the case of `COC(=O)c1cnc2c(c1)[nH]c(=O)n2-c1ccccc1F`, the Activity (Rattus norvegicus [1]) is reported as less than 25 mm and the Activity (Rattus norvegicus [2]) is reported as less than 40 mm.
`O=c1n(CCc2ccccc2)c2cccnc2n1-c1ccc2c(c1)OCO2` was tested, and the Activity (Rattus norvegicus [1]) was less than 25 mm and the Activity (Rattus norvegicus [2]) was less than 40 mm.
Work on `COc1ccc(-n2nnc3cccnc32)cc1` yielded an Activity (Rattus norvegicus [1]) of less than 25 mm and an Activity (Rattus norvegicus [2]) of less than 40 mm.
In the case of `C=CCSc1nc2cccnc2n1-c1ccc2c(c1)OCO2`, the Activity (Rattus norvegicus [1]) is reported as less than 25 mm and the Activity (Rattus norvegicus [2]) is reported as less than 40 mm.
Work on `c1cnc2c(c1)nnn2-c1ccc2c(c1)COCO2` yielded an Activity (Rattus norvegicus [1]) of less than 25 mm and an Activity (Rattus norvegicus [2]) of less than 40 mm.
`O=c1[nH]c2cccnc2n1-c1ccc2c(c1)OCCO2` was tested, and the Activity (Rattus norvegicus [1]) was less than 25 mm and the Activity (Rattus norvegicus [2]) was less than 40 mm.
`O=c1[nH]c2cccnc2n1-c1ccc2c(c1)OC1(CCCCC1)O2` was tested, and the Activity (Rattus norvegicus [1]) was less than 25 mm and the Activity (Rattus norvegicus [2]) was less than 40 mm.
Compound `Cc1cnc2c(c1)[nH]c(=O)n2-c1ccccc1F` has an Activity (Rattus norvegicus [1]) of 25 mm and an Activity (Rattus norvegicus [2]) of less than 40 mm.
With `Clc1ccc(-n2nnc3cccnc32)c(Cl)c1` the Activity (Rattus norvegicus [1]) was less than 25 mm and the Activity (Rattus norvegicus [2]) was 40 mm.
`Brc1ccccc1-n1nnc2cccnc21` was tested, and the Activity (Rattus norvegicus [1]) was 25 mm and the Activity (Rattus norvegicus [2]) was less than 40 mm.
For `COc1ccc(-n2nnc3cccnc32)cc1OC`, the Activity (Rattus norvegicus [1]) was less than 25 mm and the Activity (Rattus norvegicus [2]) was less than 40 mm.
`O=C(O)c1ccc(-n2nnc3cccnc32)cc1` gave an Activity (Rattus norvegicus [1]) of less than 25 mm and an Activity (Rattus norvegicus [2]) of less than 40 mm.
`CC(C)c1ccccc1-n1c(=O)[nH]c2cccnc21` showed an Activity (Rattus norvegicus [1]) of less than 25 mm and an Activity (Rattus norvegicus [2]) of less than 40 mm.
Compound `Fc1cccc(F)c1-n1nnc2cccnc21` has an Activity (Rattus norvegicus [1]) of 25 mm and an Activity (Rattus norvegicus [2]) of less than 40 mm.
Work on `CCOC(=O)c1cccc(-n2nnc3cccnc32)c1` yielded an Activity (Rattus norvegicus [1]) of less than 25 mm and an Activity (Rattus norvegicus [2]) of less than 40 mm.
`COc1ccc(-n2nnc3cccnc32)c(OC)c1` was tested, and the Activity (Rattus norvegicus [1]) was less than 25 mm and the Activity (Rattus norvegicus [2]) was less than 40 mm.
Work on `O=c1[nH]c2cccnc2n1-c1ccc2c(c1)CCC2` yielded an Activity (Rattus norvegicus [1]) of less than 25 mm and an Activity (Rattus norvegicus [2]) of less than 40 mm.
Compound `O=C(O)Cn1c(=O)n(-c2ccc3c(c2)OCO3)c2ncccc21` has an Activity (Rattus norvegicus [1]) of less than 25 mm and an Activity (Rattus norvegicus [2]) of less than 40 mm.
In the case of `CC(=O)Oc1ccccc1C(=O)O` [ASPIRIN], the Activity (Rattus norvegicus [1]) is reported as 25 mm and the Activity (Rattus norvegicus [2]) is reported as less than 40 mm.
With `CCc1ccc(-n2nnc3cccnc32)cc1` the Activity (Rattus norvegicus [1]) was less than 25 mm and the Activity (Rattus norvegicus [2]) was less than 40 mm.
With `Clc1ccc2nnn(-c3ccccc3)c2n1` the Activity (Rattus norvegicus [1]) was less than 25 mm and the Activity (Rattus norvegicus [2]) was less than 40 mm.
For `O=c1[nH]c2cccnc2n1C1CCCCC1`, the Activity (Rattus norvegicus [1]) was less than 25 mm and the Activity (Rattus norvegicus [2]) was less than 40 mm.
With `C=CCn1c(=O)n(-c2cccc(C)n2)c2ncccc21` the Activity (Rattus norvegicus [1]) was less than 25 mm and the Activity (Rattus norvegicus [2]) was less than 40 mm.
In the case of `C=CCn1c(=O)n(-c2ccc3c(c2)OCO3)c2ccccc21`, the Activity (Rattus norvegicus [1]) is reported as less than 25 mm and the Activity (Rattus norvegicus [2]) is reported as less than 40 mm.
For `c1ccc(CCn2nnc3cccnc32)cc1`, the Activity (Rattus norvegicus [1]) was less than 25 mm and the Activity (Rattus norvegicus [2]) was less than 40 mm.
`CC(C)c1ccccc1-n1nnc2cccnc21` was tested, and the Activity (Rattus norvegicus [1]) was 25 mm and the Activity (Rattus norvegicus [2]) was less than 40 mm.
`O=c1n(CCC2CCCCC2)c2cccnc2n1-c1ccc2c(c1)OCO2` was tested, and the Activity (Rattus norvegicus [1]) was less than 25 mm and the Activity (Rattus norvegicus [2]) was less than 40 mm.
